Laboratory results as given in ChEMBL document CHEMBL1127204, “Synthesis of 1,3-diamino-2-hydroxypropane derivatives as pseudosymmetric HIV protease inhibitors” (Bioorg Med Chem Lett, 1993).
Activity calls are given as the source filed them. The rule behind the calls is not given here.

Target: Human immunodeficiency virus type 1 protease (Human immunodeficiency virus 1) (UniProt Q72874)
Experiment: Tested in vitro for inhibition of HIV-1 protease at concentration of 10e-6 M; No activity

inhibition, inactive:
CC(C)C(NC(=O)CN(Cc1ccccc1)CC(O)CN(CC(=O)NC(C(=O)NC(C)(C)C)C(C)C)Cc1ccccc1)C(=O)NC(C)(C)C (centres undefined)
CC(C)(C)NC(=O)C1Cc2ccccc2CN1CC(O)CN1Cc2ccccc2CC1C(=O)NC(C)(C)C (centres undefined)
N[C@H](CCNC(=O)C1Cc2ccccc2CN1CC(O)CN1Cc2ccccc2CC1C(=O)NCC[C@H](N)C(=O)O)C(=O)O (some centres undefined)
CC(C)C(NC(=O)C1Cc2ccccc2CN1CC(O)CN1Cc2ccccc2CC1C(=O)NC(C(=O)NC(C)(C)C)C(C)C)C(=O)NC(C)(C)C (centres undefined)
